Experimental data published in ChEMBL document CHEMBL1201862, “PubChem BioAssay data set” (2004).
Calls of active or inactive are those of the source. Cut-off read from the data, not from the text of the source: actives have a measured IC50 and inactives only a lower limit.

Molecular target: Envelope glycoprotein gp160 (Human immunodeficiency virus 1, UniProt Q6QLK5)
Test: cell-free HIV fusion peptide-binding blockers – biochemical, uHTS, fluorescence dequenching, […] (AID 1986)

Chain of Envelope glycoprotein gp160 (Q6QLK5 whole entry, the tested form may be a part): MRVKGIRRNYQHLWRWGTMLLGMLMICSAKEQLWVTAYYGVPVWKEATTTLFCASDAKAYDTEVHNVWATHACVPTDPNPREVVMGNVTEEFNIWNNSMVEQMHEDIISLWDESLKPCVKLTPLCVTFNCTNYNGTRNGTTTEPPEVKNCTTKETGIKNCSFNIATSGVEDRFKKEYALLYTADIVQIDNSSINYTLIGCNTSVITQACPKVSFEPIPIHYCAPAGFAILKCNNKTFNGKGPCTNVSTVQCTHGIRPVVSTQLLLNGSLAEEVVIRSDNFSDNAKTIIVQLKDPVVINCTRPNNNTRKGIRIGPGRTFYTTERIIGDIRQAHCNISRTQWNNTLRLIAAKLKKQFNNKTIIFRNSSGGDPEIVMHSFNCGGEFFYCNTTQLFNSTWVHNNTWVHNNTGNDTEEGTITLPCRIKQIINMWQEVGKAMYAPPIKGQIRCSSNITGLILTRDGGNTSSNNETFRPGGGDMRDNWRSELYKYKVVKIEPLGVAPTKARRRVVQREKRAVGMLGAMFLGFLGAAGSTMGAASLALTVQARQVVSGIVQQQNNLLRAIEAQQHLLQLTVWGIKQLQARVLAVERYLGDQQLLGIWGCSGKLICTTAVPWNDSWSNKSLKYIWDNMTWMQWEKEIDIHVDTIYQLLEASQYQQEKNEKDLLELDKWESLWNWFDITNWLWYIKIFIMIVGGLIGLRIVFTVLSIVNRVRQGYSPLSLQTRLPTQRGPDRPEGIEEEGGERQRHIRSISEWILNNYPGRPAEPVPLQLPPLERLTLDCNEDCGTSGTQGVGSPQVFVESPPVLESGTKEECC

CCCOc1cccc(C2C(C(=O)c3cc4ccccc4o3)=C(O)C(=O)N2c2cc(C)on2)c1 (centres undefined)
IC50: 16.9 µM (active)

O=C(CCN1C(=O)/C(=C/c2ccco2)SC1=S)Nc1ccc(C(=O)O)c(O)c1
IC50: 14.7 µM (active)

O=C(O)CN1C(=O)/C(=C\c2cc(Br)ccc2OCc2ccc(F)cc2)SC1=S
IC50: 10.7 µM (active)

O=C(O)CN1C(=O)/C(=C\c2cc(Br)ccc2OCc2ccccc2Cl)SC1=S
IC50: 14.3 µM (active)
